Experimental data as given in US9649303B2, “Methods and treatment for allergies and inflammation associated with gastrointestinal diseases” (MASTCELL PHARMACEUTICALS, INC., priority 2008, dated 2017).

Columns and labels:
[1] = system: patients who have a history of GERD, unresponsive to conventional proton pump inhibitors or antacids; test: GERD patients unresponsive to proton pump inhibitors or antacids: ketotifen vs omeprazole (Example 5); type: in vivo, human; details: ketotifen 0.5 mg, 1 mg, 2 mg twice daily or omeprazole 1×20 mg/d
Method: To evaluate the effectiveness of ketotifen in patients who have a history of GERD, but are unresponsive to conventional proton pump inhibitors or antacids, two groups of patients are tested as similar to Example 4. One group is administered ketotifen at 0.5 mg, 1 mg, 2 mg, twice daily. The second group is treated with omeprazole, 1×20 mg/d. Sera IgE are evaluated before and after administration of ketotifen or omeprazole and gastrointestinal symptoms are recorded based on severity and frequency of symptoms.

[2] = system: adult patients who have a history of GERD; test: GERD patients on omeprazole, ketotifen or both: GI symptoms and allergen-specific serum IgE (Example 4); type: in vivo, human
Method: The following study may be carried out to analyze the effectiveness of mast cell stabilizer in treating gastrointestinal disorders and/or as a prophylaxis against the development of allergy in patients at risk of developing sensitivity to such allergen, e.g., sensitivity to hazelnut, when exposed to it.
Sera of nine adult patients who have a history of GERD are collected. None of the patients report adverse reactions to inhalant or food allergens; however, IgE immunoblots are performed to screen their allergic state. Three patients from Group A are administered a proton pump inhibitor, e.g, omeprazole (Group A-1). Three patients from Group A are administered an oral dose of 0.5, 1, or 2 mg of ketotifen orally twice daily (Group A-2). […]
Serum IgE and Skin Tests in Patients: Sera are tested for allergen-specific IgE against hazelnut and inhalative allergens from tree pollen (eg, birch, hazel, and alder), grass pollen, weed pollen, molds, house dust mites, insect venoms, and animal dander. […] Additionally, total IgE is determined before and at the 3-mo time point. […]
Gastrointestinal Symptoms: Symptoms of gastrointestinal side effects such as GERD, nausea, abdominal pain, vomiting, gastritis and/or dyspepsia are recorded based on the severity and frequency of the symptoms. […]

[3] = system: patients who have a diagnosis of eosinophilic esophagitis and food allergy; test: Eosinophilic esophagitis: ketotifen oral tablet vs topical gel (Example 7); type: in vivo, human
Method: To evaluate the effectiveness of ketotifen in patients who have a diagnosis of eosinophilic esophagitis and food allergy, two groups of patients will be tested. One group is orally administered ketotifen at 0.5 mg, 1 mg, or 2 mg, twice daily as a tablet.

[4] = system: OVA sensitized female BALB/c mice; test: Sensitization to new allergen in a model of pre-existing food allergy (Example 6); type: in vivo
Method: A study is conducted to determine whether atopic animals are more easily sensitized to a newly introduced allergen (e.g., hazel nut). Four groups of female BALB/c mice (7-8 weeks old) are sensitized by intraperitoneal (IP) injections 2 weeks apart with ovalbumin (OVA; 50 μg) in 1.3% aluminum hydroxide (200 μl) followed 2 weeks later by 7 seven intragastric challenges (every other day) with saline or 5, 10, or 50 mg OVA, a selected dose of hazel nut, or combination of OVA and hazelnut. Endpoints include observance of diarrhea after intragastric challenge, Serum total and antigen specific IgE and IgG 1, gut to body weight ratio, intestinal permeability, and histological evaluation are performed. […] A second experiment assesses the ability of ketotifen to inhibit the induction of allergy to a newly introduced food allergen in animals with a pre-existing gastrointestinal allergy. […] A group of BALB/c mice similarly sensitized to OVA, but continuing to receive intragastric hazel nut in the absence of intragastric OVA fails to develop an observable gastrointestinal allergy phenotype.

[5] = system: a patient with eosinophilic esophagitis; details: elimination of diet including eggs, treatment with ketotifen and montelukast; cited from earlier work
PAF production = details: cited from earlier work
eosinophils = details: cited from earlier work
[6] = system: patients undergoing desensitization to oral allergen (hazelnut); test: Desensitization to oral allergen with hazelnut extract plus ketotifen (Example 3); type: in vivo, human; details: ketotifen plus hazelnut extract immunotherapy vs immunotherapy alone
Description: To evaluate the efficacy of ketotifen in desensitization process against oral allergen such as hazelnut, a similar study as described in Example […] may be carried out except with the use of hazelnut extract rather than ragweed extract.

[7] = system: patients undergoing desensitization to airborne allergen (ragweed); test: One-day rush immunotherapy with short ragweed extract after ketotifen or placebo pretreatment (Example 2); type: in vivo, human; details: ketotifen 1 mg b.i.d. plus ragweed immunotherapy vs immunotherapy alone
Method: To evaluate the effectiveness of mast cell stabilizer, e.g., ketotifen, in desensitization or immunotherapy, particularly RUSH immunotherapy, a randomized, double-blind, placebo-controlled study is performed. Patients are randomly assigned to 4 treatment groups (1:1:1:1). Pretreatment with either ketotifen, 1 mg, b.i.d., or placebo, is carried out for nine weeks to protect, prevent, inhibit or ameliorate allergic reaction, particularly to prevent, normalize or ameliorate gastrointestinal symptoms. One-day rush immunotherapy (week 0) is completed at least 3 weeks before the start of the ragweed season. On the day of rush immunotherapy, the patients receive 6 injections of either placebo or aqueous short ragweed extract. Ragweed dosing starts with a diluted extract containing 0.012 μg of Amb a 1 (a major allergen in ragweed) over a 3-hour period, reaching a maximum of 1.2 μg of Amb a 1. […]
The efficacy end point is determined by comparing the average daily allergy severity scores (measured on a scale of 0-3) between patients receiving ketotifen plus immunotherapy versus those who receive just immunotherapy alone. The score is calculated from the average of individual scores for symptoms of gastrointestinal disorders, e.g., abdominal pain, nausea, diarrhea, and/or heartburn.

[8] = system: patients with a history of hazelnut allergy; test: Oral food challenge with hazelnut flour under ketotifen or placebo (Example 1); type: in vivo, human
Method: Twenty-four patients with adverse food reaction are included in this study. As controls, twelve patients matched for age and gender and a history of GERD (Group A) and another twelve patients matched for age and gender and no history of any gastrointestinal disorder (Group B) are included. The history of use of antacids and satisfaction are recorded for both groups.
To analyze hypersensitivity to hazelnut, a double-blind, randomized, dose-ranging study is carried out with patients with a history of hazelnut allergy manifested by urticaria, angioedema, respiratory tract symptoms or hypotension generally using the methods described in Israel et al., Am. J. Respir. Crit. Care Med., (2000) 164:75-80. Eligible patients include those with serum total IgE level of 30-1000 IU/mL and/or a positive skin-prick test to hazelnut. […]
Before enrollment, threshold level for reactivity to hazelnut allergen is confirmed by a screening double-blind, placebo-controlled oral food challenge. […] Vital signs are checked, chest auscultation is performed, and peak expiratory flow rates are monitored every 30 minutes during the food challenge and for at least 2 hours after the last dose or the abatement of any symptoms or signs. […]
Peak expiratory flow rates are monitored every 30 minutes during food challenge for at least 2 hours after the last does or abatement of any symptoms or signs. […]

[9] = system: sensitization to previously tolerated ovalbumin; details: co-administered with ovalbumin; via elevation of the gastric pH; cited from earlier work

Compound: CN1CCC(=C2c3ccccc3CC(=O)c3sccc32)CC1 [ketotifen]
- GERD symptoms [1]: improved GERD symptoms
- allergen specific IgE in blood sera [1]: few new allergen specific IgE
- hazelnut-specific (and other allergen specific) IgE in blood sera ([2]; after onset of treatment, Groups A-1, A-2, A-3): improved GERD symptoms and hazelnut-specific IgE
- GERD symptoms ([2]; omeprazole 1×20 mg/d (A-1), ketotifen 0.5, 1 or 2 mg orally twice daily (A-2), both (A-3)): improved GERD symptoms
- patient-reported symptoms ([3]; ketotifen 0.5 mg, 1 mg or 2 mg twice daily as oral tablet): partial improvement of symptoms
- overall effectiveness compared between formulations ([3]; oral tablet vs topical gel vs topical corticosteroids): inferior to those observed with the topical gel formulation
- blood eosinophilia ([3]; oral tablet, blood analysis): decreased eosinophilia
- eosinophils, mast cells and degranulation in esophageal biopsies ([3]; oral tablet, compared to pre-treatment biopsies): fewer numbers of eosinophils and mast cells and less degranulation
- development of new sensitivity to hazel nut ([4]; OVA sensitized mice receiving intragastric hazelnut with ketotifen or OVA plus hazelnut with ketotifen): fail to develop new sensitivity to hazel nut
- gastrointestinal allergy phenotype upon OVA intragastric challenge ([4]; female BALB/c mice sensitized to OVA): significantly suppresses the gastrointestinal allergy phenotype
- clinical outcome [5]: clinical relief
- PAF production (PAF production): suppresses PAF production
- eosinophil chemotaxis (eosinophils): inhibiting chemotaxis
- adverse events of gastrointestinal disorders [6]: fewer adverse events of gastrointestinal disorders
- allergy severity scores [6]: significantly improved allergy severity scores
- adverse events of gastrointestinal disorders [7]: fewer adverse events of gastrointestinal disorders
- allergy severity scores ([7]; scale of 0-3): significantly improved allergy severity scores
- reflux symptom reporting during the study ([8]; GERD patients, Group A1 (ketotifen) vs Group A2 (placebo)): significantly lower
- tolerance (severity of reaction) to hazelnut upon oral ingestion ([8]; ketotifen 0.5, 1 or 2 mg orally twice daily, Group A-1 and B-1 compared to placebo groups A-2 and B-2, challenge at two, four and six weeks): significant increased tolerance

Compound: sucralfate
- sensitization to previously tolerated ovalbumin [9]: caused sensitization to previously tolerated ovalbumin
